# According to the supplement of paper PMC8967900:
# Legend:
# Experiment in all cases: selective drug sensitivity score (sDSS, relative to normal bone marrow) (sDSS (score)); higher = more potent and effective on the cell line relative to normal bone marrow cells
# Details in all cases: 72 h
# MN-60 = tested on: MN-60
# P12-ICHIKAWA = tested on: P12-ICHIKAWA
# MHH-CALL-2 = tested on: MHH-CALL-2
# 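Also: ALL cell lines in 384-well plates, five doses spanning 10,000-fold, each plate scaled between vehicle and 100 µmol/L benzalkonium chloride controls, sDSS an adapted area-under-curve metric.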
Compound,selective drug sensitivity score (MN-60),selective drug sensitivity score (P12-ICHIKAWA),selective drug sensitivity score (MHH-CALL-2)
COc1cc2c(N3CCN(C(=O)Nc4ccc(OC(C)C)cc4)CC3)ncnc2cc1OCCCN1CCCCC1 [Tandutinib] (top concentration 1000 nM),0,0,0
Nc1nc(N)c2nc(-c3cccc(O)c3)c(-c3cccc(O)c3)nc2n1 [TG100-115] (top concentration 10000 nM),-0.4,-0.3,5.2
COc1cc2/c(=N/c3ccc(Br)cc3F)nc[nH]c2cc1OCC1CCN(C)CC1 [Vandetanib] (top concentration 1000 nM),-0.22,-0.22,4.38
CC/C(=C(\c1ccccc1)c1ccc(OCCN(C)C)cc1)c1ccccc1 [Tamoxifen] (top concentration 10000 nM),-1.58,0.32,0.82
Cc1c(Cn2c(C)nc3c(C(=O)O)cc(N4CCOCC4)cc32)cccc1C(F)(F)F (top concentration 10000 nM),-0.02,-0.02,0.58
CCOCc1nc2c(N)nc3ccccc3c2n1CC(C)(C)O [Resiquimod] (top concentration 10000 nM),-1.82,-4.92,-4.92
Cc1cc(C)c(CNC(=O)c2cc(-c3ccc(CN4CCOCC4)cc3)cc3c2cnn3C2CCCC2)c(=O)[nH]1 [EPZ-5687] (top concentration 10000 nM),-0.36,-0.36,5.14
O=C(Nc1cccnc1)N1CCC(Cc2cccc(Oc3ccc(C(F)(F)F)cn3)c2)CC1 [PF-3845] (top concentration 10000 nM),3.06,3.26,-0.24
CC(C)(O)CC(=O)NCCn1ccc2ncnc(Nc3ccc(Oc4cccc(C(F)(F)F)c4)c(Cl)c3)c21 [TAK-285] (top concentration 2500 nM),0,0,1.6
CCN(CC)CCCC(C)Nc1ccnc2cc(Cl)ccc12 (stereo unspecified) [Chloroquine] (top concentration 100000 nM),-2.74,-3.94,1.06
CCN(CC)CCN(Cc1ccc(-c2ccc(C(F)(F)F)cc2)cc1)C(=O)Cn1c(SCc2ccc(F)cc2)nc(=O)c2c1CCC2 [Darapladib] (top concentration 1000 nM),-1.42,-1.42,3.68
CC[C@]12C=CCN3CC[C@@]4(c5cc([C@@]6(C(=O)OC)C[C@@H]7C[C@@H](C(C)(F)F)CN(Cc8c6[nH]c6ccccc86)C7)c(OC)cc5N(C)[C@H]4[C@@](O)(C(=O)OC)[C@@H]1OC(C)=O)[C@@H]32 [Vinflunine] (top concentration 1000 nM),0.58,3.98,2.88
CC(C)C(=O)Nc1ccc([N+](=O)[O-])c(C(F)(F)F)c1 [Flutamide] (top concentration 10000 nM),-0.56,0.74,9.74
O=C(O)CNC(=O)c1c(O)c2ccccc2n(Cc2ccccc2)c1=O [IOX-2] (top concentration 50000 nM),-0.42,-0.42,1.78
Cn1nnc2c(C(N)=O)ncn2c1=O [Temozolomide] (top concentration 100000 nM),-0.04,4.96,3.36
Cc1cc(-c2ncc(CC(=O)Nc3ccc(-c4cnccn4)cn3)cc2C)ccn1 [NVP-LGK974] (top concentration 10000 nM),4.7,3.2,1.9
COCCOc1cnc2ccn([C@H](C)c3nnc4c(F)cc(-c5cnn(C)c5)cn34)c(=O)c2c1 [AMG-337] (top concentration 10000 nM),-0.06,-0.06,7.54
